Starred links: 1 amine or outer side, 2 acyl side, 3 side chain; linkers in the order of their positions; H or OH if unused. Residues, ends and D or L forms follow the SMILES beside them. Suc = O=C(CCC(=O)[*:2])[*:1]
Columns and labels:
[1] = target: T1, Endothelin receptor type B (Sus scrofa, UniProt P35463); assay: Ability to inhibit [125I]ET-3 binding to the Endothelin B receptor from porcine lung membranes was evaluated; assay type: tissue-based
T1 sequence (P35463 whole entry): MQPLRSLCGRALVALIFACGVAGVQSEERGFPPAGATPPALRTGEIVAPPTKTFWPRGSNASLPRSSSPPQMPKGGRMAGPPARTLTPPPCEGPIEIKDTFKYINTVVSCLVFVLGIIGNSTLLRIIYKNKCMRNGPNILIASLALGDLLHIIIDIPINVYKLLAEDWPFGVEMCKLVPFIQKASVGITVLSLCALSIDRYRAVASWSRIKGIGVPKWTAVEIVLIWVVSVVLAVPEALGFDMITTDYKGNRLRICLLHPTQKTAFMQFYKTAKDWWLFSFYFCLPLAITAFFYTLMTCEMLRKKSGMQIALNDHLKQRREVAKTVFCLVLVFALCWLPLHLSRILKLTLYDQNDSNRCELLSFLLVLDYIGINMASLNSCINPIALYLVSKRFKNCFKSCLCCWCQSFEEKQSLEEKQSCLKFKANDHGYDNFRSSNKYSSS

Endothelin-1 receptor = target: T2, Endothelin-1 receptor (Sus scrofa, UniProt Q29010); assay: Ability to inhibit [125I]ET1 binding to the Endothelin A receptor from porcine lung membranes was evaluated; assay type: tissue-based
T2 sequence (Q29010 whole entry): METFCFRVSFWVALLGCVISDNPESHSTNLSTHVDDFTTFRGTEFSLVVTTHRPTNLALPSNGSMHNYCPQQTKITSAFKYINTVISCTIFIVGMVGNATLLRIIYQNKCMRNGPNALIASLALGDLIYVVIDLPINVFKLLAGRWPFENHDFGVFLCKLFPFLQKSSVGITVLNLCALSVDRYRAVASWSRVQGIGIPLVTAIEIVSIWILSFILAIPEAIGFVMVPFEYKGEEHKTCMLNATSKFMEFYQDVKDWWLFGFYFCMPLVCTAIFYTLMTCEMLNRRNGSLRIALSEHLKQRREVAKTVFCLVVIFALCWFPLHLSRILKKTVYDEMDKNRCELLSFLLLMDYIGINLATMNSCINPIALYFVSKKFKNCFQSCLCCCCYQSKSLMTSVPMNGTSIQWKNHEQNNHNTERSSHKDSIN

Bos taurus = species: Bos taurus; assay: Ability to inhibit 3H substance P binding to bovine retina was evaluated; assay type: functional

Compound	Ki [1]	Ki (Endothelin-1 receptor)	IC50 (Bos taurus)
CC[C@H](C)[C@H](NC(=O)CNC(=O)[C@H](CC(=O)O)NC(=O)[C@H](CC(C)C)NC(=O)[C@H](Cc1cnc[nH]1)NC(=O)[C@H](C)NC(=O)[C@H](Cc1ccccc1)NC(=O)[C@H](Cc1ccc(O)cc1)NC(=O)[C@@H](NC(=O)[C@H](C)NC(=O)[C@H](CCC(=O)O)NC(=O)CCC(=O)O)C(C)C)C(=O)N[C@@H](Cc1c[nH]c2ccccc12)C(=O)O (Suc-EAVYFAHLDGIW-OH)	180 nM	> 10000 nM	–
CC[C@H](C)[C@H](NC(=O)[C@H](CC(=O)O)NC(=O)[C@H](CC(C)C)NC(=O)[C@H](Cc1cnc[nH]1)NC(=O)[C@@H]1CSSC[C@H](N)C(=O)N[C@@H](CO)C(=O)N[C@H]2CSSC[C@H](NC(=O)[C@H](CCC(=O)O)NC(=O)[C@H](CCCCN)NC(=O)[C@H](CC(=O)O)NC(=O)[C@H](CCSC)NC(=O)[C@H](CC(C)C)NC(=O)[C@H](CO)NC(=O)[C@H](CO)NC2=O)C(=O)N[C@@H](C(C)C)C(=O)N[C@@H](Cc2ccc(O)cc2)C(=O)N[C@@H](Cc2ccccc2)C(=O)N1)C(=O)N[C@H](C(=O)N[C@@H](Cc1c[nH]c2ccccc12)C(=O)O)[C@@H](C)CC [ENDOTHELIN]	–	0.04 nM	–
O=C(N[C@@H](Cc1c[nH]c2ccccc12)C(=O)O)C1CC1c1ccccc1 (stereo not given in full)	16 nM	–	–
Cc1cc(C)cc(C(=O)N(C)[C@H](Cc2ccccc2)C(=O)N[C@@H](Cc2c[nH]c3ccccc23)C(=O)O)c1	36 nM	11000 nM	2000 nM
CC[C@H](C)[C@H](NC(=O)[C@H](CC(=O)O)NC(=O)[C@H](CC(C)C)NC(=O)[C@H](Cc1cnc[nH]1)NC(=O)[C@H](C)NC(=O)[C@H](Cc1ccccc1)NC(=O)CNC(=O)[C@@H](NC(=O)[C@H](C)NC(=O)[C@H](CCC(=O)O)NC(=O)CCC(=O)O)C(C)C)C(=O)N[C@H](C(=O)N[C@@H](Cc1c[nH]c2ccccc12)C(=O)O)[C@@H](C)CC (Suc-EAVGFAHLDIIW-OH)	11 nM	5000 nM	–
CC[C@H](C)[C@H](NC(=O)[C@H](CC(=O)O)NC(=O)[C@H](CC(C)C)NC(=O)[C@H](Cc1cnc[nH]1)NC(=O)[C@H](C)NC(=O)[C@H](Cc1ccccc1)NC(=O)[C@H](Cc1ccc(O)cc1)NC(=O)[C@@H](NC(=O)[C@H](C)NC(=O)[C@H](CCC(=O)O)NC(=O)CCC(=O)O)C(C)C)C(=O)N[C@H](C(=O)NCC(=O)O)[C@@H](C)CC (Suc-EAVYFAHLDIIG-OH)	> 10000 nM	> 10000 nM	–
CC[C@H](C)[C@H](NC(=O)[C@H](CC(=O)O)NC(=O)[C@H](CC(C)C)NC(=O)[C@H](Cc1c[nH]cn1)NC(=O)[C@H](C)NC(=O)CNC(=O)[C@H](Cc1ccc(O)cc1)NC(=O)[C@@H](NC(=O)[C@H](C)NC(=O)[C@H](CCC(=O)O)NC(=O)CCC(=O)O)C(C)C)C(=O)N[C@H](C(=O)N[C@@H](Cc1c[nH]c2ccccc12)C(=O)O)[C@@H](C)CC (Suc-EAVYGAHLDIIW-OH)	260 nM	> 10000 nM	–
Cc1cc(C)cc(C(=O)N(C)[C@H](Cc2ccc(-c3ccccc3)cc2)C(=O)N[C@@H](Cc2c[nH]c3ccccc23)C(=O)O)c1	–	–	> 10000 nM
CC[C@H](C)[C@H](NC(=O)[C@H](CC(=O)O)NC(=O)[C@H](CC(C)C)NC(=O)[C@H](Cc1cnc[nH]1)NC(=O)[C@H](C)NC(=O)[C@H](Cc1ccccc1)NC(=O)[C@H](Cc1ccc(O)cc1)NC(=O)[C@@H](NC(=O)[C@H](C)NC(=O)[C@H](CCC(=O)O)NC(=O)CCC(=O)O)C(C)C)C(=O)NCC(=O)N[C@@H](Cc1c[nH]c2ccccc12)C(=O)O (Suc-EAVYFAHLDIGW-OH)	5200 nM	> 10000 nM	–

The next lines start with the values.

Ki [1]	Ki (Endothelin-1 receptor)	IC50 (Bos taurus)	Compound
0.91 nM	1300 nM	–	CC[C@H](C)[C@H](NC(=O)[C@H](CC(=O)O)NC(=O)[C@H](CC(C)C)NC(=O)[C@H](Cc1c[nH]cn1)NC(=O)[C@H](C)NC(=O)[C@H](Cc1ccccc1)NC(=O)[C@H](Cc1ccc(O)cc1)NC(=O)CNC(=O)[C@H](C)NC(=O)[C@H](CCC(=O)O)NC(=O)CCC(=O)O)C(=O)N[C@H](C(=O)N[C@@H](Cc1c[nH]c2ccccc12)C(=O)O)[C@@H](C)CC (Suc-EAGYFAHLDIIW-OH)
5 nM	–	800 nM	Cc1cc(C)cc(C(=O)N(C)[C@H](Cc2ccccc2)C(=O)NCCc2c[nH]c3ccccc23)c1
0.077 nM	620 nM	–	CC[C@H](C)[C@H](NC(=O)[C@H](CC(=O)O)NC(=O)[C@H](CC(C)C)NC(=O)[C@H](Cc1c[nH]cn1)NC(=O)[C@H](C)NC(=O)[C@H](Cc1ccccc1)NC(=O)[C@H](Cc1ccc(O)cc1)NC(=O)[C@@H](NC(=O)[C@H](C)NC(=O)[C@H](CCC(=O)O)NC(=O)CCC(=O)O)C(C)C)C(=O)N[C@H](C(=O)N[C@@H](Cc1c[nH]c2ccccc12)C(=O)O)[C@@H](C)CC (Suc-EAVYFAHLDIIW-OH)
0.25 nM	96 nM	–	CC[C@H](C)[C@H](NC(=O)CNC(=O)[C@H](CC(C)C)NC(=O)[C@H](Cc1cnc[nH]1)NC(=O)[C@H](C)NC(=O)[C@H](Cc1ccccc1)NC(=O)[C@H](Cc1ccc(O)cc1)NC(=O)[C@@H](NC(=O)[C@H](C)NC(=O)[C@H](CCC(=O)O)NC(=O)CCC(=O)O)C(C)C)C(=O)N[C@H](C(=O)N[C@@H](Cc1c[nH]c2ccccc12)C(=O)O)[C@@H](C)CC (Suc-EAVYFAHLGIIW-OH)
5.3 nM	2000 nM	–	CC[C@H](C)[C@H](NC(=O)[C@H](CC(=O)O)NC(=O)[C@H](CC(C)C)NC(=O)[C@H](Cc1cnc[nH]1)NC(=O)CNC(=O)[C@H](Cc1ccccc1)NC(=O)[C@H](Cc1ccc(O)cc1)NC(=O)[C@@H](NC(=O)[C@H](C)NC(=O)[C@H](CCC(=O)O)NC(=O)CCC(=O)O)C(C)C)C(=O)N[C@H](C(=O)N[C@@H](Cc1c[nH]c2ccccc12)C(=O)O)[C@@H](C)CC (Suc-EAVYFGHLDIIW-OH)
5.9 nM	> 10000 nM	–	CC[C@H](C)[C@H](NC(=O)[C@H](CC(=O)O)NC(=O)CNC(=O)[C@H](Cc1c[nH]cn1)NC(=O)[C@H](C)NC(=O)[C@H](Cc1ccccc1)NC(=O)[C@H](Cc1ccc(O)cc1)NC(=O)[C@@H](NC(=O)[C@H](C)NC(=O)[C@H](CCC(=O)O)NC(=O)CCC(=O)O)C(C)C)C(=O)N[C@H](C(=O)N[C@@H](Cc1c[nH]c2ccccc12)C(=O)O)[C@@H](C)CC (Suc-EAVYFAHGDIIW-OH)
1 nM	250 nM	–	CC[C@H](C)[C@H](NC(=O)[C@H](CC(=O)O)NC(=O)[C@H](CC(C)C)NC(=O)CNC(=O)[C@H](C)NC(=O)[C@H](Cc1ccccc1)NC(=O)[C@H](Cc1ccc(O)cc1)NC(=O)[C@@H](NC(=O)[C@H](C)NC(=O)[C@H](CCC(=O)O)NC(=O)CCC(=O)O)C(C)C)C(=O)N[C@H](C(=O)N[C@@H](Cc1c[nH]c2ccccc12)C(=O)O)[C@@H](C)CC (Suc-EAVYFAGLDIIW-OH)

Source: ChEMBL document CHEMBL1129770 (Bioorg Med Chem Lett, 1996)
